Measured values: US20210238138A1, “Method for improving nucleation of crystals from solution” (Université Libre de Bruxelles, priority 2018, published 2021)

Assay: Maturing of acetylsalicylic acid crystals (growth treatment, early filtration)
Type: physicochemical
Conditions: 3 m tubing, Tc 15° C., σ 4.5, 30 mL/min; for Sphere Equivalent Diameter: thickness set to ⅕ of width
Description: Obtaining different crystal sizes as end-product then depends on the time that is given to the crystals to mature further. […] To further proof the effect of early filtration (see table 10), the liquor of tests 43 and 44 were also directly filtered after exiting the tubing (test 49 and 50, respectively); the product of test 44 was also collected for 2 minutes and filtered afterwards (test 51).

[1] = test 49: 200 mg/mL ethanol/water 50/50 vol %, restriction 1 of 250 μm ID, filtration At exit
[2] = test 50: 200 mg/mL ethanol/water 50/50 vol %, restriction 2 of 250 μm ID, filtration At exit
[3] = test 51: 200 mg/mL ethanol/water 50/50 vol %, restriction 2 of 250 μm ID, filtration After 120 s

In the case of `CC(=O)Oc1ccccc1C(=O)O` [Acetylsalicylic acid, acetylsalicylic acid], the Crystal length [1] is reported as 104 ± 55 μm, the Crystal width [1] is reported as 28 ± 13 μm and the “Sphere Equivalent Diameter” value [1] is reported as 32 ± 7 μm. The Crystal width [2] was 23 ± 17 μm, the “Sphere Equivalent Diameter” value [2] was 24 ± 8 μm and the Crystal length [3] was 155 ± 91 μm. The Crystal width [3] was 36 ± 17 μm.
